Results taken from US20240245793A1, “PSD-95 INHIBITORS AND USES THEREOF” (priority 2021, published 2024).

Tested on: HeLa cells stably expressing HaloGFP
Experiment: Chloroalkane penetration assay (CAPA), membrane permeability and cellular uptake
Type: cell-based
Settings: not given
Description: Since PSD-95 is located intracellularly, it is essential for any drug targeting PSD-95 to efficiently cross the cell membrane. To assess the cellular permeability and delivery to the cytosol of the compounds as defined herein, the cellular chloroalkane penetration assay (CAPA) may be used (Peraro et al. 2018). This assay takes advantage of a modified haloalkane dehalogenase designed to covalently bind chloroalkane (CA) molecules. A HeLa cell line expressing a fusion protein comprising a HaloTag, a green fluorescent protein (GFP) and a mitochondria-targeting peptide is used to report cytosolic delivery. The general format of the CAPA is a pulse-chase assay (Deprey & Kritzer, 2020). Cells expressing the HaloTag enzyme are incubated with CA-tagged peptides. When these CA-peptides penetrate the cell membrane and reach the cytosol, they will bind to and react with the HaloTag (pulse step). Following a washing step, the cells are incubated with a CA-tagged dye that quantitatively penetrates the cell membrane and reacts with remaining unreacted HaloTag sites (chase step). Flow cytometry is used to measure the fluorescence intensity of the cells and the measured fluorescence is inversely proportional to the amount of CA-peptides that reach the penetrated the cells and can thus be used to assess cytosolic delivery. The obtained data is commonly expressed as CP50 values, the concentration at which 50% cell penetration is observed. The CP50 value of a compound may be measured as described in example 4.
The membrane permeability of compounds 10 to 75 was determined in HeLa cells stably expressing HaloGFP exclusively located in the cytosol. Cells were seeded at a density of 40.000 cells/well one day prior to the experiment. After the growth media was aspirated and replaced by 100 μL of Opti-MEM, 25 μL of a prepared serial dilution of the ligand in Opti-MEM was added to the cells (constant DMSO concentration), and the plate was incubated for 4 h at 37° C. and 5% CO2. The contents of the wells were aspirated, and cells were washed with fresh Opti-MEM for 15 min. After aspiration of the wash, the cells were incubated with TAMRA-CA (5 μM) for 15 min. After aspiration of the chase solution, cells were washed with Opti-MEM for 30 min. Following removal of the wash, cells were trypsinized, resuspended in PBS (2% FBS), and analyzed using a benchtop flow cytometer. Using no ligand and no TAMRA-CA control well, the obtained fluorescence intensity data was normalized and plotted as dose-response curves. Reported CP50 values represent half-maximum red fluorescence which behaves inverse to cell penetration of the ligand.

Point of comparison: `CC[C@H](C)[C@H](NC(=O)CCOCCOCCN(CCOCCOCCC(=O)N[C@H](C(=O)N[C@@H](CCC(=O)O)C(=O)N[C@H](C(=O)N[C@@H](CC(=O)O)C(=O)N[C@H](C(=O)O)C(C)C)[C@@H](C)O)[C@@H](C)CC)C(=O)[C@H](CCCNC(=N)N)NC(=O)[C@H](CCCNC(=N)N)NC(=O)[C@H](CCCNC(=N)N)NC(=O)[C@H](CCCNC(=N)N)NC(=O)[C@H](CCCNC(=N)N)NC(=O)[C@H](CCCNC(=N)N)NC(=O)[C@H](CCCNC(=N)N)NC(=O)CCC(=O)NCCOCCOCCCCCCCl)C(=O)N[C@@H](CCC(=O)O)C(=O)N[C@H](C(=O)N[C@@H](CC(=O)O)C(=O)N[C@H](C(=O)O)C(C)C)[C@@H](C)O` [Compound 64], CP50 1.66 ± 0.43 µM. Against it:
- CC[C@H](C)[C@H](NC(=O)CCOCCOCCN(CCOCCOCCC(=O)N[C@H](C(=O)N[C@@H](CCC(=O)O)C(=O)N[C@H](C(=O)N[C@@H](CC(=O)O)C(=O)N[C@H](C(=O)O)C(C)C)[C@@H](C)O)[C@@H](C)CC)C(=O)[C@@H](CCCNC(=N)N)NC(=O)[C@@H](CCCCN)NC(=O)[C@@H](CCCCN)NC(=O)[C@@H](CCCNC(=N)N)NC(=O)[C@@H](CCCNC(=N)N)NC(=O)[C@@H](CCC(N)=O)NC(=O)[C@@H](CCCNC(=N)N)NC(=O)[C@@H](CCCNC(=N)N)NC(=O)[C@@H](CCCNC(=N)N)NC(=O)CCC(=O)NCCOCCOCCCCCCCl)C(=O)N[C@@H](CCC(=O)O)C(=O)N[C@H](C(=O)N[C@@H](CC(=O)O)C(=O)N[C@H](C(=O)O)C(C)C)[C@@H](C)O [Compound 43] — 130-fold higher, 221 ± 36 µM
- CC[C@H](C)[C@H](NC(=O)CCOCCOCCN(CCOCCOCCC(=O)N[C@H](C(=O)N[C@@H](CCC(=O)O)C(=O)N[C@H](C(=O)N[C@@H](CC(=O)O)C(=O)N[C@H](C(=O)O)C(C)C)[C@@H](C)O)[C@@H](C)CC)C(=O)[C@@H](CCCNC(=N)N)NC(=O)[C@@H](CCCNC(=N)N)NC(=O)[C@@H](CCCNC(=N)N)NC(=O)[C@@H](CCCNC(=N)N)NC(=O)[C@@H](CCCNC(=N)N)NC(=O)[C@@H](CCCNC(=N)N)NC(=O)[C@@H](CCCNC(=N)N)NC(=O)[C@@H](CCCNC(=N)N)NC(=O)[C@@H](CCCNC(=N)N)NC(=O)CCC(=O)NCCOCCOCCCCCCCl)C(=O)N[C@@H](CCC(=O)O)C(=O)N[C@H](C(=O)N[C@@H](CC(=O)O)C(=O)N[C@H](C(=O)O)C(C)C)[C@@H](C)O [Compound 45] — 97-fold higher, 161 ± 25 µM
- CC[C@H](C)[C@H](NC(=O)CCOCCOCCN(CCOCCOCCC(=O)N[C@H](C(=O)N[C@@H](CCC(=O)O)C(=O)N[C@H](C(=O)N[C@@H](CC(=O)O)C(=O)N[C@H](C(=O)O)C(C)C)[C@@H](C)O)[C@@H](C)CC)C(=O)[C@H](CO)NC(=O)[C@H](CCC(=O)O)NC(=O)[C@H](CCCNC(=N)N)NC(=O)[C@H](CCCNC(=N)N)NC(=O)[C@H](CCCNC(=N)N)NC(=O)[C@H](CCCCN)NC(=O)[C@H](CCCCN)NC(=O)[C@H](CCCNC(=N)N)NC(=O)[C@H](CO)NC(=O)[C@H](CCC(=O)O)NC(=O)[C@H](CCCNC(=N)N)NC(=O)[C@H](CCCNC(=N)N)NC(=O)[C@H](CCCNC(=N)N)NC(=O)[C@H](CCCCN)NC(=O)[C@H](CCCCN)NC(=O)[C@H](CCCNC(=N)N)NC(=O)CCC(=O)NCCOCCOCCCCCCCl)C(=O)N[C@@H](CCC(=O)O)C(=O)N[C@H](C(=O)N[C@@H](CC(=O)O)C(=O)N[C@H](C(=O)O)C(C)C)[C@@H](C)O [Compound 51] — 1.9-fold higher, 3.2 ± 0.5 µM
- CC[C@H](C)[C@H](NC(=O)CCOCCOCCN(CCOCCOCCC(=O)N[C@H](C(=O)N[C@@H](CCC(=O)O)C(=O)N[C@H](C(=O)N[C@@H](CC(=O)O)C(=O)N[C@H](C(=O)O)C(C)C)[C@@H](C)O)[C@@H](C)CC)C(=O)[C@H](CCCCN)NC(=O)[C@H](CO)NC(=O)[C@H](Cc1c[nH]cn1)NC(=O)[C@H](C)NC(=O)[C@H](Cc1c[nH]cn1)NC(=O)[C@H](C)NC(=O)[C@H](CCC(N)=O)NC(=O)[C@H](CCCCN)NC(=O)[C@H](CCCNC(=N)N)NC(=O)[C@@H](NC(=O)[C@H](CCCNC(=N)N)NC(=O)[C@H](CCCNC(=N)N)NC(=O)[C@H](CCCNC(=N)N)NC(=O)[C@H](CC(C)C)NC(=O)[C@@H](NC(=O)[C@@H](NC(=O)[C@H](CC(C)C)NC(=O)[C@H](CC(C)C)NC(=O)CCC(=O)NCCOCCOCCCCCCCl)[C@@H](C)CC)[C@@H](C)CC)[C@@H](C)CC)C(=O)N[C@@H](CCC(=O)O)C(=O)N[C@H](C(=O)N[C@@H](CC(=O)O)C(=O)N[C@H](C(=O)O)C(C)C)[C@@H](C)O [Compound 53] — within error, 1.7 ± 0.1 µM
- CC[C@H](C)[C@H](NC(=O)CCOCCOCCN(CCOCCOCCC(=O)N[C@H](C(=O)N[C@@H](CCC(=O)O)C(=O)N[C@H](C(=O)N[C@@H](CC(=O)O)C(=O)N[C@H](C(=O)O)C(C)C)[C@@H](C)O)[C@@H](C)CC)C(=O)[C@H](C)NC(=O)[C@H](CC(C)C)NC(=O)[C@H](CCCCN)NC(=O)[C@H](CC(C)C)NC(=O)[C@H](C)NC(=O)[C@H](C)NC(=O)[C@H](CCCCN)NC(=O)[C@H](CC(C)C)NC(=O)[C@H](C)NC(=O)[C@H](CCCCN)NC(=O)[C@H](CC(C)C)NC(=O)[C@H](C)NC(=O)[C@H](CC(C)C)NC(=O)[C@H](CCCCN)NC(=O)[C@H](CC(C)C)NC(=O)[C@H](C)NC(=O)[C@H](CC(C)C)NC(=O)[C@H](CCCCN)NC(=O)CCC(=O)NCCOCCOCCCCCCCl)C(=O)N[C@@H](CCC(=O)O)C(=O)N[C@H](C(=O)N[C@@H](CC(=O)O)C(=O)N[C@H](C(=O)O)C(C)C)[C@@H](C)O [Compound 55] — 2.2-fold higher, 3.7 ± 0.3 µM
- CC[C@H](C)[C@H](NC(=O)CCOCCOCCN(CCOCCOCCC(=O)N[C@H](C(=O)N[C@@H](CCC(=O)O)C(=O)N[C@H](C(=O)N[C@@H](CC(=O)O)C(=O)N[C@H](C(=O)O)C(C)C)[C@@H](C)O)[C@@H](C)CC)C(=O)[C@H](Cc1ccccc1)NC(=O)[C@H](CCC(N)=O)NC(=O)CNC(=O)[C@H](CCCNC(=N)N)NC(=O)[C@H](CC(C)C)NC(=O)[C@H](CC(C)C)NC(=O)[C@H](CCCNC(=N)N)NC(=O)[C@H](CC(C)C)NC(=O)[C@H](Cc1ccc(O)cc1)NC(=O)[C@@H](NC(=O)[C@H](CC(C)C)NC(=O)[C@@H]1CCCN1C(=O)CCC(=O)NCCOCCOCCCCCCCl)[C@@H](C)CC)C(=O)N[C@@H](CCC(=O)O)C(=O)N[C@H](C(=O)N[C@@H](CC(=O)O)C(=O)N[C@H](C(=O)O)C(C)C)[C@@H](C)O [Compound 57] — 11-fold higher, 17.9 ± 0.3 µM
- CC[C@@H](C)[C@@H](NC(=O)[C@@H](CC(C)C)NC(=O)[C@H]1CCCN1C(=O)CCC(=O)NCCOCCOCCCCCCCl)C(=O)N[C@H](Cc1ccc(O)cc1)C(=O)N[C@H](CC(C)C)C(=O)N[C@H](CCCNC(=N)N)C(=O)N[C@H](CC(C)C)C(=O)N[C@H](CC(C)C)C(=O)N[C@H](CCCNC(=N)N)C(=O)NCC(=O)N[C@H](CCC(N)=O)C(=O)N[C@H](Cc1ccccc1)C(=O)N(CCOCCOCCC(=O)N[C@H](C(=O)N[C@@H](CCC(=O)O)C(=O)N[C@H](C(=O)N[C@@H](CC(=O)O)C(=O)N[C@H](C(=O)O)C(C)C)[C@@H](C)O)[C@@H](C)CC)CCOCCOCCC(=O)N[C@H](C(=O)N[C@@H](CCC(=O)O)C(=O)N[C@H](C(=O)N[C@@H](CC(=O)O)C(=O)N[C@H](C(=O)O)C(C)C)[C@@H](C)O)[C@@H](C)CC [Compound 59] — 40-fold higher, 67.2 ± 5.3 µM
- CC[C@H](C)[C@H](NC(=O)CCOCCOCCN(CCOCCOCCC(=O)N[C@H](C(=O)N[C@@H](CCC(=O)O)C(=O)N[C@H](C(=O)N[C@@H](CC(=O)O)C(=O)N[C@H](C(=O)O)C(C)C)[C@@H](C)O)[C@@H](C)CC)C(=O)[C@H](CCCCNC(=O)CCC(=O)NCCOCCOCCCCCCCl)NC(=O)CCCNC(=O)CC[C@@H]1NC(=O)[C@@H](CCCNC(=N)N)NC(=O)[C@H](CCCNC(=N)N)NC(=O)[C@@H](CCCNC(=N)N)NC(=O)[C@H](CCCNC(=N)N)NC(=O)[C@H](Cc2ccc3ccccc3c2)NC(=O)[C@@H](Cc2ccccc2)NC(=O)[C@H](Cc2ccccc2)NC1=O)C(=O)N[C@@H](CCC(=O)O)C(=O)N[C@H](C(=O)N[C@@H](CC(=O)O)C(=O)N[C@H](C(=O)O)C(C)C)[C@@H](C)O [Compound 63] — 6.7-fold higher, 11.2 ± 0.7 µM

Same assay, conditions: CA-tagged NPEG4-(IETDV)2 with various CPP-tags, 4 h at 37° C.; mean ± SEM (Table 11, FIG. 8)

`CC[C@H](C)[C@H](NC(=O)CCOCCOCCN(CCOCCOCCC(=O)N[C@H](C(=O)N[C@@H](CCC(=O)O)C(=O)N[C@H](C(=O)N[C@@H](CC(=O)O)C(=O)N[C@H](C(=O)O)C(C)C)[C@@H](C)O)[C@@H](C)CC)C(=O)[C@@H]1CC(=O)NC[C@H](NC(=O)CCC(=O)NCCOCCOCCCCCCCl)C(=O)N[C@@H](CCCCN)C(=O)N[C@@H](C)C(=O)N2CCC[C@H]2C(=O)N[C@@H](CCC(=O)O)C(=O)N[C@@H]([C@@H](C)O)C(=O)N[C@@H](C)C(=O)N[C@@H](CC(C)C)C(=O)N1)C(=O)N[C@@H](CCC(=O)O)C(=O)N[C@H](C(=O)N[C@@H](CC(=O)O)C(=O)N[C@H](C(=O)O)C(C)C)[C@@H](C)O` [Compound 61] gave a CP50 of 13.2 ± 0.4 µM.
